Data from US20230020507A1, “COMPOUND AND USE THEREOF IN TREATING AUTOIMMUNE DISEASES” (PARENCHYMA BIOTECH INC., priority 2019, published 2023).

What was measured:
[1] = test system: C57BL/6 mice with DSS-induced inflammatory bowel disease; test: DSS-induced inflammatory bowel disease model, severity index and colon weight:length ratio; type: in vivo, mouse; conditions: 20 mg/kg oral daily, compared to solvent control; for inflammatory bowel disease severity index: 2nd to 11th day, 10th day of the experiment; for colon weight:length ratio (intestinal inflammation): 15th day of the experiment
Description: The 1.5% DSS solution was changed at an interval of 2 days. Sterile distilled water was provided for drinking from the 8th day of the experiment. Body weight and severity index were measured at an interval of 2 days from the 0th day of the experiment in order to confirm the onset of inflammatory bowel disease.
20 mg/kg of the compound per mouse was completely dissolved in DMSO corresponding to 10% (v/v) of the administered dose, and then diluted in a cremophor EL-phosphate buffered saline mixture in order to produce the final DMSO:Cremophor EL:phosphate buffered saline (1:1:8, v/v/v), followed by oral administration of 200 μl daily for a total of 10 times from the 2nd to 11th days of the experiment. An inflammatory bowel disease severity index was visually observed and recorded at an interval of 2 days according to a severity index system classified into 0 to 10 levels.
Inflammatory bowel disease symptoms were evaluated by summing the scores of three items according to the following items (Table 3).

[2] = test system: Foxp3+ regulatory T cells; test: In vitro regulatory T cell (Foxp3+ Treg) production from human peripheral blood CD4 T cells; type: cell-based; conditions: anti-CD3/anti-CD28, TGFβ-1, IL-2, 2.5 μM, 7 days
Description: Human peripheral blood (AllCells) and phosphate buffered saline (PBS) were mixed in a ratio of 1:1 to prepare a mixture, followed by allowing the mixture to slowly rise so as not to be mixed into the upper layer of Histopaque (Sigma). After centrifugation at 350 g for 20 minutes, only the monocyte layer in the middle layer was collected and washed with HBSS (Hanks' Balanced Salt Solution, Gibco®). After washing with MACS buffer (Miltenyi Biotec) once more to obtain T-cells, positive selection (autoMACS seperator, Miltenyi Biotec) was performed with CD4 Microbeads (Miltenyi Biotec). The T-cells collected by the above method were prepared by resuspending the cells in RPMI-fetal bovine serum (FBS) 10%+2-ME (mercaptoethanol) medium at 5×10^5/ml. For T-cell activation, 10 μg/ml anti-CD3 (eBioscience™) was dispensed by 150 μl into a 48-well plate, reacted in a cell incubator (37° C., 5% CO2 incubator) for 3 hours, and washed with phosphate buffered saline to prepare the plate. 250 μl of resuspended T-cells was dispensed onto the prepared plate, and each well was treated with 2 μg/ml of anti-CD28 (eBioscience™), 5 ng/ml of TGFβ-1 (R&D systems), and 50 U/ml of IL-2 (Miltenyi Biotec). Each 5 μl of compounds at a concentration of 2.5 μM diluted in RPMI+2ME medium was used for treatment, followed by culturing the same in a cell incubator (37° C., 5% CO2 incubator) for 7 days. As a control, 5 μl of 0.05% dimethylsulfoxide (DMSO)/RPMI medium was used for treatment. After 7 days, in order to confirm effects of producing regulatory T cells, the cultured cells were recovered to determine the presence of Foxp3 protein.
The recovered cells were placed in a 5 ml FACS tube (BD Falcon) and washed with 1 ml of phosphate buffered saline. The cells were resuspended in 0.1 ml of FACS buffer (0.1% NaN3, 1% FBS) and treated with 1 μg of human immunoglobulin G (Human IgG, Sigma) to prevent non-specific binding of the antibody. After reacting at 4° C. for 15 minutes, the cells were washed with FACS buffer. Then, 1 ml of Fixation/Permeabilization solution (eBioscience™) was added to the FACS tube containing each sample, followed by reaction at 4° C. for 1 hour. Thereafter, the product was washed twice with a Permeabilization buffer (eBioscience™). Then, 0.25 μg of Foxp3 monoclonal antibody (eBioscience™) was used for treatment, followed by staining the sample for 4 to 30 minutes. The cells were washed twice with the permeabilization buffer, suspended in 0.3 ml of FACS buffer, and measured by flow cytometry.

[3] = test system: IL-1β, IL-6, IL-17A, TNF-α, IL-10 and Foxp3 expression in colon lesions; test: mRNA expression of inflammatory and immunomodulatory factors in colon of DSS mice (real-time PCR); type: in vivo, mouse; conditions: 20 mg/kg oral, 15th day, compared to solvent control
Description: On the 15th day of the experiment, the colon of the mouse was excised to prepare an mRNA sample. In order to extract mRNA, the colon tissue was ground with a homogenizer to acquire a homogeneous suspension. […] From the isolated RNA, cDNA was synthesized by reverse transcription followed by confirming the expression of inflammatory cytokines through real-time polymerase chain reaction (PCR) using iQ SYBR-Green Supermix (Bio-rad) in the CFX96 (Bio-rad) detection system. Relative values of the enzyme expression levels were compared by the ΔΔct method using GAPDH as a control enzyme. Herein, one (1) fold was set using the normal mouse colon as a control.
The real-time polymerase chain reaction was implemented under the conditions of cycles at an annealing temperature of 58′° C. and the following primer sequences were used.

[4] = test system: C57BL/6 mice with autoimmune encephalomyelitis (EAE); test: Experimental autoimmune encephalomyelitis (EAE) model of multiple sclerosis, severity index; type: in vivo, mouse; conditions: 20 mg/kg intraperitoneally daily 12th to 17th day
Description: On day 0, myelin oligodendrocyte glycoproteins 35-55 (MOG 35-55, Peptron) (200 μg), heat-killed Mycobacterium tuberculosis (Difco, Cat No. 231141) (500 μg), and adjuvant (Complete Freund's adjuvant, Sigma Aldrich, Cat No. F5506) were mixed together and then submerged for 7 minutes. After subcutaneous injection of 100 μl of the submerged peptide into both flanks of each of C57BL/6 mice (7 weeks old, female, 17±2 g), 100 μl of pertussis toxin (Sigma Aldrich. Cat No. P2980) (200 ng) was administered intravenously to the tail.
On the 2nd day of the experiment, the same amount of pertussis toxin was administered intravenously. The mice were checked for immersion leaking from the injected site, and visually observed from the 7th day of the experiment in order to confirm the onset of multiple sclerosis.
The multiple sclerosis index was visually observed and recorded at an interval of 2 days from the 7th day of the experiment in the severity index system classified into 0-5 stages, and autoimmune encephalomyelitis symptoms were indexed according to the following items (see Table 4).

[5] = test system: IFN-γ, IL-17A, IL-1β, IL-10 and Foxp3 expression in spinal cord lesions; test: mRNA expression of inflammatory and immunomodulatory factors in spinal cord of EAE mice (real-time PCR); type: in vivo, mouse; conditions: 20 mg/kg i.p., 42nd day, compared to solvent control
Description: On the 42nd day of the experiment, the spinal cord of the mouse was excised to prepare an mRNA sample. In order to extract mRNA, the spinal cord tissue was ground with a homogenizer to obtain a homogeneous suspension. […] Then, cDNA was synthesized from the isolated RNA by reverse transcription, and the expression of inflammatory cytokines was investigated through real-time polymerase chain reaction (PCR) using iQ SYBR-Green Supermix (Bio-rad) in the CFX96 (Bio-rad) detection system. Relative values of the enzyme expression levels were compared by the ΔΔct method using GAPDH as a control enzyme. Herein, one (1) fold was set using the WT mouse spinal cord as a control.
The real-time polymerase chain reaction was implemented under the conditions of cycles at an annealing temperature of 58° C., and the following primer sequences were used.

[6] = scale 0-5, solvent control 3.33±0.17

| SMILES | inflammatory bowel disease severity index [1] | colon weight:length ratio (intestinal inflammation) [1] | generation of Foxp3+ regulatory T cells [2] | also measured |
| --- | --- | --- | --- | --- |
| CN(C(=O)Cc1c[nH]c2ccc(F)cc12)c1nc2ccccc2s1 [Compound 60, N-(benzo[di]thiazol-2-yl)-2-(5-fluoro-1H-indol-3-yl)-N-methyl acetamide] | statistically significant therapeutic effects | significantly suppressed |  |  |
| CN(C(=O)Cc1c[nH]c2ccccc12)c1nc2ccccc2s1 [Compound 44, N-(benzo[di]thiazol-2-yl)-2-(1H-indol-3-yl)-N-methyl acetamide] | statistically significant therapeutic effects | significantly suppressed | promoted |  |
| CN(C(=O)Cc1c[nH]c2ccc(Cl)cc12)c1nc2ccccc2s1 [Compound 47] |  |  | promoted |  |
| Cc1nc(NC(=O)Cc2c[nH]c3ccc(Cl)cc23)ccc1Br [Compound 8, N-(5-bromo-6-methylpyridin-2-yl)-2-(5-chloro-1H-indol-3-yl)acetamide] | statistically significant therapeutic effects | significantly suppressed | promoted | expression level of Foxp3 in the colon lesion [3]: significantly increased; expression level of IL-1β in colon lesions [3]: significantly reduced; expression level of IL-6 in colon lesions [3]: significantly reduced; expression level of IL-10 in the colon lesion [3]: significantly increased; expression level of IL-17A in colon lesions [3]: significantly reduced; expression level of TNF-α in colon lesions [3]: significantly reduced; treatment effects on EAE severity index compared to solvent control from the 16th day, maintained after administration was stopped [4]: statistically significant treatment effects; severity index (EAE), 18th day, acute reaction period [4, 6]: 1.17±0.56; severity index (EAE), 36th day, chronic reaction period [4, 6]: 1.17±0.56; expression level of Foxp3 in spinal cord lesions [5]: significantly increased; expression level of IFN-γ in the spinal cord lesion [5]: significantly reduced; expression level of IL-1β in the spinal cord lesion [5]: significantly reduced; expression level of IL-10 in spinal cord lesions [5]: significantly increased; expression level of IL-17A in the spinal cord lesion [5]: significantly reduced |
| O=C(Cc1c[nH]c2ccccc12)Nc1cc(Cl)cc(Cl)c1 [Compound 81, N-(3,5-dichlorophenyl)-2-(1H-indol-3-yl)acetamide] |  |  | promoted |  |
| Cc1nc(NC(=O)Cc2c[nH]c3ccccc23)ccc1Br [Compound 5, N-(5-bromo-6-methylpyridin-2-yl)-2-(1H-indol-3-yl)acetamide] |  |  | promoted |  |
| Cc1nc(NC(=O)Cc2c[nH]c3ccc(F)cc23)ccc1Br [Compound 2, N-(5-bromo-6-methylpyridin-2-yl)-2-(5-fluoro-1H-indol-3-yl)acetamide] |  |  | promoted |  |
| COc1cc(NC(=O)Cc2c[nH]c3ccccc23)cc(OC)c1OC [Compound 71, 2-(1H-indol-3-yl)-N-(3,4,5-trimethoxyphenyl)acetamide] |  |  | promoted |  |
| O=C(Cc1c[nH]c2ccccc12)Nc1ccc(Cl)c(F)n1 [Compound 23, N-(5-chloro-6-fluoropyridin-2-yl)-2-(1H-indol-3-yl)acetamide] |  |  | promoted |  |
